From PubChem BioAssay (NCI) come the findings set out here.

Broadly, the TGI is the concentration giving total growth inhibition. The low end stands for more potent growth arrest, the high end for less potent growth arrest. A word on the GI50: it is the concentration that inhibits growth by half.

Test systems include A549 NSCLC; CAKI-1 renal; HOP-62 NSCLC; OVCAR-8 ovarian; RPMI-8226 leukemia; SK-MEL-2 melanoma; SK-MEL-28 melanoma; SK-MEL-5 melanoma; SW-620 colon; MDA-MB-231 breast; RXF 393 renal; PC-3 prostate.
What all share (experiment): DTP human tumour cell line panel, 48 h

SMILES strings stand for the structures. “And” between values parts separate entries of the source, which are not always exact repeats. Equal values may be shown once.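 Dose response: 5 concentrations. Exposure: 48 h. Format: 96-well plates. Endpoint: linear interpolation; highest concentration if not reached. GI50 is the concentration that inhibits growth by half. TGI is the concentration that stops growth completely.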

Turning to `COC(=O)C1C2C=CC(C2)N1[C@@H](C)c1ccccc1` (some centres undefined), the TGI in the experiment on A549 NSCLC, in the experiment with CAKI-1 renal, in the experiment with HOP-62 NSCLC, in the experiment on OVCAR-8 ovarian, with RPMI-8226 leukemia and with SK-MEL-2 melanoma was greater than 100 µM in each case. In addition, the TGI in the experiment with SK-MEL-28 melanoma, in the experiment on SK-MEL-5 melanoma and with SW-620 colon was greater than 100 µM each time.
Turning to `S=C1N=C(Cl)C2(NN1)c1ccccc1-c1ccccc12`, the TGI with A549 NSCLC, in the experiment with CAKI-1 renal, in the experiment with HOP-62 NSCLC, with MDA-MB-231 breast, in the experiment with OVCAR-8 ovarian and in the experiment on RPMI-8226 leukemia was greater than 10 µM throughout. Also, the TGI in the experiment with SK-MEL-28 melanoma, with SK-MEL-5 melanoma and with SW-620 colon was greater than 10 µM each time.
Turning to `COc1ccc(C(C#N)NNc2nc(C)cc(=O)[nH]2)cc1OC` (centres undefined), the total growth inhibition concentration (TGI) in the experiment with A549 NSCLC, in the experiment with CAKI-1 renal, in the experiment with HOP-62 NSCLC, in the experiment with OVCAR-8 ovarian, in the experiment with RPMI-8226 leukemia and in the experiment on RXF 393 renal was greater than 100 µM in each case. The TGI in the experiment with SK-MEL-2 melanoma, in the experiment with SK-MEL-28 melanoma, in the experiment with SK-MEL-5 melanoma and in the experiment with SW-620 colon was greater than 100 µM in each case.
Regarding `CC(=O)NC1=C(C)C(=O)c2c(nc3n2CCC3O)C1=N` (centres undefined), the TGI in the experiment on A549 NSCLC was greater than 100 µM; with CAKI-1 renal it was 27.7 µM; with HOP-62 NSCLC, greater than 100 µM; in the experiment with OVCAR-8 ovarian, 16.7 µM; in the experiment with RPMI-8226 leukemia, greater than 100 µM; in the experiment with SK-MEL-2 melanoma it was 22 µM. The TGI in the experiment with SK-MEL-28 melanoma came to 31 µM; in the experiment with SK-MEL-5 melanoma it was 26.2 µM; in the experiment on SW-620 colon, 26.4 µM.
For `COc1ccc(C2S/C(=C\c3ccc(O)cc3)C(=O)N2NC(=O)Cc2ccccc2)cc1` (centres undefined), the total growth inhibition concentration (TGI) in the experiment on A549 NSCLC, with CAKI-1 renal, in the experiment on HOP-62 NSCLC, with OVCAR-8 ovarian, in the experiment on RPMI-8226 leukemia and in the experiment with RXF 393 renal was greater than 100 µM each time. Further, the total growth inhibition concentration (TGI) with SK-MEL-2 melanoma, in the experiment on SK-MEL-28 melanoma, with SK-MEL-5 melanoma and in the experiment on SW-620 colon was greater than 100 µM in each case.
Regarding `O=C(CSC(=S)N1CCOCC1)Nc1nc2c(s1)CCCC2`, the TGI with A549 NSCLC, with HOP-62 NSCLC, with OVCAR-8 ovarian, with RPMI-8226 leukemia, in the experiment with SK-MEL-2 melanoma and in the experiment with SK-MEL-28 melanoma was greater than 100 µM throughout. This molecule also yielded a TGI in the experiment with SK-MEL-5 melanoma greater than 100 µM.
For the molecule `CC(=O)OC1c2ccccc2CCCCCCC12OCCO2` (centres undefined), the TGI in the experiment with A549 NSCLC, with CAKI-1 renal, with HOP-62 NSCLC, in the experiment with OVCAR-8 ovarian, with RPMI-8226 leukemia and with RXF 393 renal was greater than 100 µM in each case. Also, the TGI in the experiment on SK-MEL-2 melanoma, in the experiment with SK-MEL-28 melanoma, in the experiment with SK-MEL-5 melanoma and with SW-620 colon was greater than 100 µM each time.
With `CC(C)=CCSC1CC2C(CC1(C)O)C2(C)C` (centres undefined), the concentration for total growth inhibition (TGI) was 24.1 µM and 30.2 µM in the experiment on A549 NSCLC; 28.3 µM and 25.5 µM with CAKI-1 renal; 31.8 µM and 31.2 µM in the experiment on HOP-62 NSCLC; 34.3 µM and 27.1 µM in the experiment on OVCAR-8 ovarian; 48.5 µM and 61.6 µM in the experiment on RPMI-8226 leukemia; 11.2 µM and 28.4 µM with RXF 393 renal. In addition, the TGI in the experiment with SK-MEL-2 melanoma is 44.5 µM and 24.7 µM; with SK-MEL-28 melanoma, 31.3 µM and 30.7 µM; in the experiment with SK-MEL-5 melanoma it was 28.5 µM and 20.1 µM; in the experiment with SW-620 colon, 35.1 µM and 33.3 µM. The GI50 is 2.01 µM and 14.9 µM with RXF 393 renal; 22.8 µM and 10.2 µM with SK-MEL-2 melanoma; 14.7 µM and 6.59 µM in the experiment on SK-MEL-5 melanoma.
Turning to `NC(=O)N1N=C2c3ccccc3SC[C@H]2[C@@H]1c1ccccc1`, the TGI was greater than 100 µM with A549 NSCLC; 65.6 µM in the experiment with HOP-62 NSCLC; 65.9 µM with OVCAR-8 ovarian; 87.5 µM with RPMI-8226 leukemia; 26 µM in the experiment with RXF 393 renal; 52.1 µM with SK-MEL-28 melanoma. Also, the TGI was 21.8 µM with SK-MEL-5 melanoma and greater than 100 µM with SW-620 colon.
Turning to `O=C(CC(C(=O)c1ccoc1)c1ccco1)c1ccco1` (centres undefined), the TGI in the experiment on A549 NSCLC, with CAKI-1 renal, in the experiment with HOP-62 NSCLC, in the experiment with MDA-MB-231 breast, in the experiment with OVCAR-8 ovarian and in the experiment on RPMI-8226 leukemia was greater than 100 µM in each case. Further, the TGI with RXF 393 renal, in the experiment on SK-MEL-28 melanoma, with SK-MEL-5 melanoma and in the experiment with SW-620 colon was greater than 100 µM in each case.
`CCOc1cc(NC(C)=O)ccc1C(=O)NN1C(=O)/C(=C/c2cc(OC)c(OC)c(OC)c2)N=C1c1ccccc1`: the TGI with A549 NSCLC, with CAKI-1 renal, in the experiment on OVCAR-8 ovarian, in the experiment with SK-MEL-28 melanoma, with SK-MEL-5 melanoma and in the experiment on SW-620 colon was greater than 100 µM throughout.
For `Cc1cccc(NC(=S)Nc2ccccc2Cl)n1`, the TGI in the experiment with A549 NSCLC is greater than 100 µM; with CAKI-1 renal, 96.4 µM; with HOP-62 NSCLC, 46.2 µM; in the experiment on OVCAR-8 ovarian, 73.7 µM; with PC-3 prostate, greater than 100 µM; with RPMI-8226 leukemia it was greater than 100 µM. The TGI is 60 µM with RXF 393 renal; greater than 100 µM with SK-MEL-2 melanoma; greater than 100 µM in the experiment with SK-MEL-28 melanoma; greater than 100 µM in the experiment with SK-MEL-5 melanoma; greater than 100 µM with SW-620 colon.
As for `COc1cc2c(c(OC)c1OC)-c1ccc(SC)cc1[C@H](OC(=O)c1ccccc1)CC2`, the TGI was greater than 100 µM in the experiment on CAKI-1 renal; greater than 100 µM with HOP-62 NSCLC; greater than 100 µM with OVCAR-8 ovarian; 0.452 µM in the experiment with RXF 393 renal; greater than 100 µM with SK-MEL-2 melanoma; greater than 100 µM in the experiment with SK-MEL-28 melanoma. In addition, the figures for the TGI with SK-MEL-5 melanoma and in the experiment with SW-620 colon were 1.21 µM and greater than 100 µM, respectively.
Regarding `CC(C)C1CC(O)O[C@@H]([C@@H](C)[C@H]2CC(=O)[C@@H]3[C@@H]4[C@@H](O)[C@H](O)[C@H]5[C@@H](O)[C@H](O)CC[C@]5(C)[C@H]4CC[C@]23C)C1` (some centres undefined), the TGI was greater than 100 µM with A549 NSCLC; 61.4 µM in the experiment on HOP-62 NSCLC; greater than 100 µM in the experiment with OVCAR-8 ovarian; 28.9 µM in the experiment with RXF 393 renal; greater than 100 µM in the experiment with SK-MEL-2 melanoma; greater than 100 µM in the experiment on SK-MEL-28 melanoma. In addition, the TGI with SK-MEL-5 melanoma and with SW-620 colon was greater than 100 µM each time.
As to `COc1cc(COC(=O)N2CCC2C(=O)O)c([N+](=O)[O-])cc1OC` (centres undefined), the TGI in the experiment with A549 NSCLC, in the experiment on HOP-62 NSCLC, with OVCAR-8 ovarian, in the experiment with PC-3 prostate, with RPMI-8226 leukemia and with RXF 393 renal was greater than 100 µM in each case. Moreover, the TGI in the experiment with SK-MEL-28 melanoma, in the experiment on SK-MEL-5 melanoma and in the experiment with SW-620 colon was greater than 100 µM throughout.
With `COC(=O)c1csc(-c2nc(CCNC(=O)OC(C)(C)C)sc2Br)n1`, the TGI with A549 NSCLC, in the experiment with HOP-62 NSCLC, in the experiment on OVCAR-8 ovarian, in the experiment on PC-3 prostate, in the experiment on RPMI-8226 leukemia and in the experiment with RXF 393 renal was greater than 100 µM throughout. In addition, the TGI in the experiment with SK-MEL-28 melanoma, in the experiment with SK-MEL-5 melanoma and with SW-620 colon was greater than 100 µM each time.
In the case of `CCN(CC)C(=S)SS(=O)(=O)c1ccc([N+](=O)[O-])cc1`, the TGI was greater than 100 µM in the experiment with A549 NSCLC; 34.4 µM in the experiment with CAKI-1 renal; greater than 100 µM in the experiment with HOP-62 NSCLC; 66.4 µM with MDA-MB-231 breast; 42.5 µM with OVCAR-8 ovarian; 48.8 µM with RPMI-8226 leukemia. Also, the TGI with RXF 393 renal is 32.1 µM; with SK-MEL-2 melanoma it was greater than 100 µM; with SK-MEL-28 melanoma, 38.3 µM; in the experiment with SK-MEL-5 melanoma, 29.2 µM; in the experiment with SW-620 colon it was 37.1 µM. In addition, the GI50 in the experiment with HOP-62 NSCLC is 32.1 µM; in the experiment on MDA-MB-231 breast, 25.9 µM; in the experiment on RXF 393 renal, 16 µM; in the experiment on SK-MEL-28 melanoma it was 19 µM; with SW-620 colon, 17.9 µM.
Take `CCOC(=O)C(NC(=O)Nc1ccc(Cl)c(Cl)c1)C(F)(F)F` (centres undefined): the TGI in the experiment on A549 NSCLC, in the experiment on OVCAR-8 ovarian, in the experiment on PC-3 prostate, in the experiment on RPMI-8226 leukemia, in the experiment with RXF 393 renal and in the experiment with SK-MEL-2 melanoma was greater than 100 µM throughout. The TGI in the experiment on SK-MEL-28 melanoma, with SK-MEL-5 melanoma and with SW-620 colon was greater than 100 µM in each case.
Turning to `CN1CN(c2ccccc2)C2(CCN(CCc3csc4ccccc34)CC2)C1=O`, the TGI with A549 NSCLC came out at 64.2 µM; in the experiment on CAKI-1 renal it was 30.1 µM; in the experiment on HOP-62 NSCLC it was 26.4 µM; with OVCAR-8 ovarian, 51.6 µM; in the experiment with PC-3 prostate, 33.5 µM; in the experiment on RPMI-8226 leukemia, 37.4 µM. The TGI in the experiment with RXF 393 renal was found to be 25.3 µM; with SK-MEL-28 melanoma, 29.7 µM; with SK-MEL-5 melanoma, 33.3 µM; with SW-620 colon it was 39.3 µM.
Turning to `CC(=O)OCC1=C(C)C(OC(=O)C(OC(C)=O)[C@@H](NC(=O)c2ccccc2)c2ccccc2)CCC1(C)C` (some centres undefined), the TGI in the experiment on A549 NSCLC, in the experiment on CAKI-1 renal, in the experiment with HOP-62 NSCLC, in the experiment on MDA-MB-231 breast, in the experiment with OVCAR-8 ovarian and with RPMI-8226 leukemia was greater than 100 µM each time. Also, the total growth inhibition concentration (TGI) in the experiment on RXF 393 renal, in the experiment on SK-MEL-28 melanoma, with SK-MEL-5 melanoma and in the experiment on SW-620 colon was greater than 100 µM throughout.
Consider `CCC(CC)n1c(C)nc2c1C(=O)c1ccccc1C2=O`, for which the total growth inhibition concentration (TGI) with A549 NSCLC, in the experiment with HOP-62 NSCLC, in the experiment with OVCAR-8 ovarian, with RXF 393 renal, in the experiment on SK-MEL-2 melanoma and in the experiment on SK-MEL-28 melanoma was greater than 100 µM each time. Also, the TGI was 37.1 µM with SK-MEL-5 melanoma and greater than 100 µM in the experiment with SW-620 colon.
